In US5789541A, “Compounds for inhibition of proteolysis” (President and Fellows of Harvard College, priority 1995, dated 1998):
Read-outs that look alike come from different tables or passages of the source. Non-standard residues stand in square brackets, D forms with d. No end group written: not given here. *: point of attachment. Farnesyl = CC(C)=CCC/C(C)=C/CC/C(C)=C/C*

Tests used:
Type in all cases: biochemical
[1] = test system: protease of bovine liver microsomal membranes; assay: Substrate kinetics/activity: formation of N-[3H]-AFC from peptide substrates by calf liver microsomal protease; set-up: key to substrate activity (Table 1, in words): Analogs referred to as inactive did not show detectable activity as substrate when used at concentration of 10mM and prolonged incubation time (16 hours); weakly active: Where marginal activity is noted, detectable activity is observed under prolonged incubation periods, but the activity is <5% that observer, with AFC-V-I-S; conditions: for substrate activity for the protease (in words): calf liver microsomal preparation; for substrate activity (Table 1, in words): 10mM, prolonged incubation time (16 hours)
Protocol: Briefly, N-[^3 H]-Acetyl-S-farnesyl-L-cys-L-val-L-ile-L-ser or N-[^3 H]acetyl-S-farnesyl-(SEQ ID NO: 1) at a concentration of 10 μM was incubated with bovine liver microsomal membranes (preparation described below). Periodically, 50 μL aliquots were withdrawn from the incubation mixture and the reaction was quenched with 500μL of chloroform/methanol (1:1, v/v). N-[^3 H]-AFC was extracted after thoroughly mixing the mixture for 1 minute and extracting with chloroform. Phase separation was achieved by adding 500μL of 1M citric acid. The chloroform layer was evaporated under nitrogen, resuspended in hexane/isopropanol/TFA (85:15:0.1), and authentic AFC standard was added for detection at 210 nm. The sample was injected on a silica HPLC column (Dynamax 60A, Rainin, Woburn, Mass.) and eluted with the same solvent. Radioactivity was counted with an on-line Berthold (Nashua, N.H.) LB 506-C HPLC radioactivity monitor.
(§1) Measurement of Proteolytic Activity Bovine liver microsomes were prepared according to Walter et al. (Meth. Enzym. 96:84, 1983). Kinetic measurements were performed by incubating 0.2 mg/mL protein with peptide substrates in 200 mM HEPES buffer containing 100 mM NaCl and 5 mM MgCl2 at pH 7.4, all in a final volume of 50 μL. The peptide substrates were added in DMSO to a final concentration of 4% (v/v) at 37°. The enzymatic reaction was quenched at the appropriate time by the addition of 0.5 mL of chloroform/methanol (1/1, v/v). Phase separation was achieved by adding 0.5 mL 1M citric acid. The chloroform layer was separated and evaporated under nitrogen and the residue was dissolved in n-hexane/2-propanol/TFA containing cold AFC. The formation of the product ^3 H-AFC was followed by HPLC analysis at 210 nm according to Perez-Sala et al. (Proc. Nat'l Acad. Sci. USA 88:3043, 1991). The samples were injected onto a normal phase HPLC column (Dynamax 60, Rainin, Woburn, Mass.) connected to a model LB 506-C on-line radioactivity monitor (Berthold, Nashua, N.H.). The column was eluted with n-hexane/2-propanol/TFA [85:15:0.1 (v/v/v)] at 1.5 mL/min.
For these experiments the substrates were dissolved in DMSC and incubated with calf liver microsomal membranes (0.2 mg of protein/mL) (Walter et al., supra) as described above. The amount of radioactive product was determined as described above. The reaction was quenched with 500 μL of CHCl3 /MeOH (1:1, v/v), and the radioactive N-terminal amino acid, i.e. N-[^3 H]AFC, was extracted after thoroughly agitating this mixture. Phase separation was achieved by adding 500 μL of 1M citric acid. After the chloroform layer was evaporated under nitrogen the residue was resuspended in n-hexane/isopropanol/TFA (90:10:0.01) and non-radioactive AFC was added as a standard for UV detection (210 nm). The sample was injected on a normal-phase HPLC column (Dynamax 60A, Rainin), and elution was performed with the same solvent at flow rate l.5 ml/min. Radioactivity was counted with an on-line Berthold (Nashua, NH) LB 506-C HPLC radioactivity monitor. The limit of efficiency of this assay was 3× the background counts/min (~150 cpm), which permits detection of products from substrates whose activities are 0.4% of the Vmax of AFC-Val-Ile-Ser (SEQ ID NO: 1) (1.13 pmol/min/mg). The retention times for AGC, AFC, and AGGC are 7.58, 7.26, and 7.00 min respectively, and for AGC-Val-Ile, AFC-Val-Ile, and AGGC-Val-Ile, they are 5.48, 6.54, and 5.08 min respectively.

[2] = test system: proteolytic enzymatic activity in dog pancreatic microsomes; assay: Proteolysis of tetrapeptide by dog pancreatic microsomes, extended incubation; conditions: extended incubation conditions
Protocol: A similar stereospecific proteolytic enzymatic activity was also found in dog pancreatic microsomes. Under extended incubation conditions, where 54% of the tetrapeptide substrate 1 was cleaved by these microsomes, no proteolysis of D-AFC-val-ile-ser 2 could be detectec, (<1%). […] Synthesis of N-[^3 H]-acetyl-S-all-trans-farnesyl-L-Cys-L-Val-L-Ile-L-Ser or N-[^3 H]acetyl-S-farnesyl-(SEQ ID NO: 1) A solution of N-[^3 H]-acetyl-S-all-trans-farnesyl-L-Cys-L-Val-L-Ile (1.12 μmol, 250 mCi/mmol), L-serine hydrochloride methyl ester (20 mg, 0.13 mmol), and 1-hydroxybenzotriazole hydrate (17.4 mg, 0.13 mmol) in 3 mL of DMF was cooled to 0° C. 1-(3-Dimethylamino)propyl-3-ethyl carbodiimide hydrochloride (17.2 mg, 0.09 mmol) and N-methylmorpholine (14.1 μL, 13 mg, 0.13 mmol) were added at 0° C. The mixture was stirred at 0° C. under argon for 2 hours and at room temperature for 24 hours. Water (20 mL) was added and the mixture was extracted with ethyl acetate (4×20 mL). The combined organic layer was washed with 10% HCl, saturated sodium bicarbonate, and water, dried over anhydrous magnesium sulfate, filtered, and evaporated. The residue was dissolved in 3 mL of acetonitrile and 3 mL of 10% aqueous sodium carbonate was added. The mixture was stirred at room temperature for 24 h. 10% HCl was added to adjust the pH to 2. […] Recovery of radioactivity was 28.2 μCi, 1.13×10^-4 mmol. […]

[3] = test system: protease of bovine liver microsomal membranes; assay: Inhibition of proteolysis of [3H]-AFC-val-ile-ser by calf liver microsomal protease; conditions: 4 μM [3H]-AFC-val-ile-ser substrate; 20 μM of the dipeptide or tripeptide
Protocol: as §1
As expected, the proteolysis of [^3 H]-AFC-val-ile-ser or N-[^3 H]-(SEQ ID NO: 1) was inhibited by the dipeptide substrate (AFC-val) and by the tripeptide substrate (AFC-val-ile). […]

[4] = Table 1, substrate of the protease, calf liver microsomal membranes, average of two determinations ±S.D., same enzyme preparation
[5] = Table 1, substrate of the protease, calf liver microsomal membranes, average of two determinations ±S.D., same enzyme preparation, read-out: KM
[6] = substrate of the protease, liver microsomal membranes, read-out: KM

Compound	substrate activity for the protease (in words) [1]	substrate activity (Table 1, in words) ([1]; Table 1)	other results
CC(=O)N[C@@H](CSC/C=C(\C)CC/C=C(\C)CCC=C(C)C)C(N)=O [AFC amide]	not a substrate	–	–
N-Ac-S-all-trans-farnesyl-D-Cys-L-Val-L-Ile [AFC-Val-Ile (6)]	–	inactive	–
N-[^3 H]-Acetyl-L-Cys-L-Val-L-Ile [Cys-Val-Ile (4)]	Neither analog was measurably processed	inactive	–
N-[^3 H]-Acetyl-S-all-trans-geranylgeranyl-D-cys-L-Val-L-Ile [AGGC-Val-Ile (2) D-L-L]	no measurable protease activity	inactive	–
N-[^3 H]-Acetyl-S-all-trans-geranylgeranyl-L-Cys-L-Val-L-Ile [AGGC-Val-Ile (2)]	good substrates	–	Vmax [1, 4]: 26.20 ± 0.97 pmol/min/mg; Km [1, 5]: 4.01 ± 0.4 µM; Vmax ([1]; substrate of the protease): 19.35 pmol/min/mg; Km [1, 6]: 14.6 µM
N-[^3 H]-Acetyl-S-thio-t-butyl-L-Cys-L-Val-L-Ile [t-butylthio-Cys-Val-Ile (5)]	Neither analog was measurably processed	inactive	–
N-[^3 H]-acetyl-S-all-trans-farnesyl-D-Cys-L-Val-L-Ile-L-Ser [D-AFC-val-ile-ser]	did not occur	–	tetrapeptide cleaved [2]: < 1%
N-[^3 H]-acetyl-S-all-trans-farnesyl-L-Cys-L-Val-D-Ile [AFC-Val-Ile (8)]	did not have substrate activity	inactive	–
N-[^3 H]-acetyl-S-all-trans-farnesyl-L-Cys-L-Val-L-Ile-D-Met ({(3H)‑acetyl}-C(Farnesyl)VI[dM]) [AFC-Val-Ile-Met (10)]	processed to some extent	weakly active (Where marginal activity is noted, detectable activity is observed under prolonged incubation periods, but the activity is <5% that observer, with AFC-V-I-S)	–
N-[^3 H]-acetyl-S-all-trans-farnesyl-L-Cys-L-Val-L-Ile-L-Met (C(Farnesyl)VIM; not fully specified (N-terminus); printed as N-[^3 H]-acetyl-S-all-trans-farnesyl-L-Cys-L-Val-L-Ile-L-Met; also: tritium label on the N-acetyl) [AFC-Val-Ile-Met (9)]	good substrate	–	Vmax [1, 4]: 126.3 pmol/min/mg; Km [1, 5]: 2.96 ± 0.35 µM
N-acetyl-S-all-trans-farnesyl-D-Cys-D-Val-L-Ile [D-D-L]	inactive	–	–
N-acetyl-S-all-trans-farnesyl-L-Cys-D-Val-L-Ile [AFC-Val-Ile (7)]	did not have substrate activity	inactive	–
N-acetyl-S-farnesyl-L-cysteine-L-val-L-ile-L-ser [AFC-val-ile-ser]	–	–	tetrapeptide cleaved [2]: 54%; Vmax ([1]; bovine liver microsomal membranes): 0.236 ± 0.008 nmol/min/mg protein; Km [1, 6]: 4.8 µM
N-acetyl-S-trans-geranyl-D-Cys-L-Val-Ile [AGC-Val-Ile (3) D-L-L]	no measurable protease activity	inactive	–
N-acetyl-S-trans-geranyl-L-Cys-L-Val-L-Ile [AGC-Val-Ile (3)]	good substrates	–	Vmax [1, 4]: 19.35 ± 1.12 pmol/min/mg; Km [1, 5]: 14.6 ± 2.14 µM
acetyl-S-all-trans-farnesyl-L-Cys-Val-Ile [AFC-Val-Ile (1)]	–	–	diminution in substrate cleavage [3]: approximately 50%; Vmax [1, 4]: 57.7 ± 5 pmol/min/mg; Vmax, previously measured ([1]; former measurement on a different microsome preparation from a different animal): 65.6 pmol/min/mg; Km ([1]; former measurement on a different microsome preparation from a different animal, read-out: KM, previously measured): 12.6 µM; Vmax ([1]; substrate of the protease): 58 ± 4.9 pmol/min/mg; Km [1, 6]: 9.2 ± 0.21 µM
